Patent US9562914B2, “Microfluidic device for real-time clinical monitoring and quantitative assessment of whole blood coagulation” (President and Fellows of Harvard College, priority 2013, dated 2017)

Tested on: whole human blood
Test: whole blood clotting time in microfluidic coagulation device (infusion or pressure pump mode)
Assay type: cell-based
Details: microchannels coated with human collagen I at 100 μg/ml; device of FIG. 13A; uncoated PDMS 15-60 minutes
Protocol: As discussed below, in the test configuration, 2-5 ml of human whole blood was pumped through an infusion or pressure pump followed by an inline pressure sensor that connected to ports 120a, 120b of the microfluidic device 100 via appropriate medical grade tubing (e.g., 1.6 mm ID). In infusion mode, clot formation leads to an increase in pressure, whereas in constant pressure mode, the flow rate drops with respect to time. […] The characteristic constants of these models indicate clotting times at two stages—when the clot formation is accelerating and when the clot has completely occluded the channel. […] Fluorescence microscopy of fibrinogen and platelets allow real-time monitoring of fibrin formation and platelet aggregation simultaneously.
In the testing conducted with the microfluidic device 100 of FIG. 1, fresh human blood stored in a 5 ml syringe (slip-tip Plastipak, BD, Franklin Lakes, N.J.) was pushed via syringe pump (PHD Ultra CP, Harvard Apparatus, Holliston, Mass.) through an inline, disposable pressure sensor (PREPS-N-000, PendoTECH, Princeton, N.J.) followed by the PDMS device within 15 minutes of blood draw. […] In the test setup, the imaging device 130 used was a fluorescence imaging configured Carl Zeiss Axio 3 Observer microscope (10×, NA 0.3 objective), but other imaging devices may be readily used in accord with the present concepts. […]

## human collagen I: human collagen I coated on the microchannels at a concentration of 100 μg/ml
  clotting time with collagen-coated microchannels: 2 to 20 min
